Legend:
potato leaf tissue = conditions: 24 hours after foliar application, compared with spreader and urea groups, n=6
Description: (§1) Three foliar application groups were prepared—a spreader group (Approach B1, Kao), a urea group (spreader+0.87 mM urea), and a proline group (spreader+1.75 mM proline), and about 20 ml per plant was sprayed once a week beginning about a month after planting (immediately before flowering). The leaves were sprayed 6 times (6 weeks), and harvested 3 months after planting.

[1] = test system: potatoes (May Queen cultivar); assay: Yield survey of potatoes after foliar application of proline under low-nitrogen conditions; assay type: in vivo, potato; conditions: for Total tuber weight (per plant) / Total number of tubers (per plant): foliar spray 6 times at one-week intervals, harvest 3 months after planting, n = 6; for Total tuber weight (per plant): low-nitrogen soil (total nitrogen 0.6 g); for Total number of tubers (per plant): low-nitrogen soil; for Ratio of total number of tubers to spreader group / Ratio of total tuber weight to spreader group: same test, spreader group = 1.00
Description: The effects of foliar application of a proline solution on growth and yield were investigating using potatoes (May Queen cultivar). Potato tubers were placed in No. 7 pots containing 1.5 kg of Power Soil (Kureha Chemical). Under normal cultivation conditions, about 5 g of nitrogen fertilizer is used as base fertilizer; while in this cultivation test, cultivation was under low-nitrogen conditions.
as §1
Aqueous solutions of a spreader, urea and proline were applied 6 times at one-week intervals to the leaf surfaces of potato plants 1 month after planting. These were cultivated for 3 months after planting, with 6 pots in each group and one stalk per plant. The tubers were harvested from each pot, and the tuber weight and number of tubers per pot was measured.

| SMILES | 2-OG content in leaf tissue (potato leaf tissue) | Total tuber weight (per plant) [1] [g] | Total tuber weight (per plant) ([1]; listed as proline) [g] | Total number of tubers (per plant) [1] | Total number of tubers (per plant) ([1]; listed as proline) | Ratio of total number of tubers to spreader group [1] | Ratio of total tuber weight to spreader group [1] | Ratio of total tuber weight to spreader group ([1]; listed as proline) | Total tuber weight (per plant) ([1]; listed as urea) [g] | Total number of tubers (per plant) ([1]; listed as urea) |
| --- | --- | --- | --- | --- | --- | --- | --- | --- | --- | --- |
| O=C(O)[C@@H]1CCCN1 [Proline, proline] | significantly greater | 158.4 ± 18.0 | 158.4 | 8.2 ± 1.0 | 8.2 | 1.00 | 1.10 | 1.1 |  |  |
| NC(N)=O [Urea, urea, reference compound] |  | 140.1 ± 10.6 |  | 6.8 ± 1.6 |  | 0.83 | 0.96 |  | 140.1 | 6.8 |
